As usually defined, the Ki is the equilibrium dissociation constant of an inhibitor or competing ligand from its target.

Common to all, as to format: binding
Assay [1] concerns the target T1, tau protein aggregate (Homo sapiens, UniProt P10636). The experiment in a line: Inhibition constant toward tau protein aggregate (thioflavin S competition). Further details: made in house; host or cells: E. coli BL21. Conditions: for Ki ratios of Aβ42/Tau: ratio of Ki Aβ42 aggregate to Ki tau protein aggregate; for Ki: thioflavin S as ligand, tau protein aggregate, read-out: Ki values (Tau in Table 5). The method, then:
(§1) First, the dissociation constant (Kd) of thioflavin S used as a competitive ligand was first determined by a saturation experiment in order to calculate inhibition constants of compounds 1 to 3. That is, a mixed solution of a 10 vol % ethanol aqueous solution of thioflavin S (0.1-12.8 μmol/L) and the tau protein aggregate (final concentration 0.2 μmol/L, prepared in Example 9) or the Aβ42 aggregate (final concentration 2.2 μmol/L, prepared in Example 11) was incubated for 30 minutes, and the fluorescence intensity was measured using a fluorescence plate reader (FLEX STATION, Molecular Devices). The fluorescence intensity was measured at Ex 440 nm and Em 510 nm for the tau protein aggregate and Ex 440 nm and Em 490 nm for the Aβ42 aggregate. A saturation curve was prepared using GraphPad Prism, and the Kd value for thioflavin S was calculated.
(§2) Next, a mixed solution of a 10 volt ethanol aqueous solution of thioflavin S (1.5 μmol/L) and a test compound (0.6 nmol/L to 10 μmol/L) together with the tau protein aggregate (final concentration 0.2 μmol/L, prepared in Example 9) or the Aβ42 aggregate (final concentration 10 μg/ml, prepared in Example 11) was incubated for 30 minutes. Then, the fluorescence intensities at Ex 440 nm and Em 510 nm for the tau protein aggregate and Ex 440 nm and Em 490 nm for the Aβ42 aggregate were measured using a fluorescence plate reader (FLEX STATION, Molecular Devices). GraphPad Prism inhibition curves were prepared, and Ki values of compounds 1 to 3 were determined using the above obtained Kd value of thioflavin S.

For the next assay, the target named is T2, Aβ42 aggregate (Homo sapiens, UniProt P05067).
T2 construct: Aβ (1-42) peptide; purchased Peptide Institute, Inc
The experiment in a line: Inhibition constant toward Aβ42 aggregate (thioflavin S competition). Conditions: thioflavin S as ligand, read-out: Ki values (Aβ42 in Table 5). The method, then: as §1, §2

Assay [2] addresses T1, tau protein aggregate. As to the kind of experiment: Competitive inhibition experiment using thioflavin S (ThS) as ligand, fluorescence spectra. Conditions: tau protein aggregate 0.2 μmol/L, thioflavin S 1.5 μmol/L, compound 0.1-2.7 μmol/L, excitation 440 nm. Further details: made in house; host or cells: E. coli BL21. How it is done:
Tau-441 expression vector (provided by Graduate School of Medicine, Osaka City University) was transferred to E. coli (BL21), culturing was carried out, and a tau protein was extracted and purified. Heparin (0.1 mg/mL) was added to the purified tau protein (1 mg/mL), and incubation in a 50 mmol/L MES buffer (pH 6.8, 100 mmol/L sodium chloride, 0.5 mmol/L EGTA) at 37° C. was carried out for 3 days, thus preparing an aggregate. Formation of the tau protein aggregate was confirmed by SDS-PAGE and thioflavin S fluorescence assay.
A mixed solution (550 μL) of the tau protein aggregate (final concentration […]) thus prepared, thioflavin S (Sigma Aldrich, final concentration 1.5 μmol/L), and compound 1, compound 2, or compound 3 solution at various concentrations (each having final concentrations of 0 to 2.7 μmol/L) was incubated for 30 minutes, and fluorescence spectra at an excitation wavelength of 440 nm were measured using a fluorescence spectrometer (RF-5300PC, Shimadzu Corporation).
In FIGS. 3 to 5, a is a fluorescence spectrum of a sample (sample I) containing only thioflavin S at 1.5 μmol/L, and b is a fluorescence spectrum of a sample (sample II) that is 0.2 μmol/L of the tau protein aggregate in sample I. In FIG. 3, c is a fluorescence spectrum of a sample that is 0.1 μmol/L of compound 1 in sample II, d is a fluorescence spectrum of a sample that is 0.3 μmol/L of compound 1 in sample II, e is a fluorescence spectrum of a sample that is 0.9 μmol/L of compound 1 in sample II, and f is a fluorescence spectrum of a sample that is 2.7 μmol/L of compound 1 in sample II. In FIG. 4, c is a fluorescence spectrum of a sample that is 0.1 μmol/L of compound 2 in sample II, d is a fluorescence spectrum of a sample that is 0.3 μmol/L of compound 2 in sample II, e is a fluorescence spectrum of a sample that is 0.9 μmol/L of compound 2 in sample II, and f is a fluorescence spectrum of a sample that is 2.7 μmol/L of compound 2 in sample II. […]

T1 sequence (P10636 1-441 isoform P10636-8): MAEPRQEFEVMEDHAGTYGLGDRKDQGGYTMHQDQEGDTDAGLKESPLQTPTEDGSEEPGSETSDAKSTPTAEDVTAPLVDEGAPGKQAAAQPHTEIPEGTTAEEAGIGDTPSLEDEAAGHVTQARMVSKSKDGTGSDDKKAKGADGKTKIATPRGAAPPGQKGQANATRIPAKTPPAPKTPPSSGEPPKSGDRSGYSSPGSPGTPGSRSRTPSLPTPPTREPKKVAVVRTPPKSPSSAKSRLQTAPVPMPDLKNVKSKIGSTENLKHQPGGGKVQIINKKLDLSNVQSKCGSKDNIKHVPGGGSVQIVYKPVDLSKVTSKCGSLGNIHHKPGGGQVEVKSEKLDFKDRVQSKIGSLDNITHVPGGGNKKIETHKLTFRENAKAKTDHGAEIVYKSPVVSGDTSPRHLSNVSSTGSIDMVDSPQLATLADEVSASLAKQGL
T2 sequence (P05067 672-713 limits assumed): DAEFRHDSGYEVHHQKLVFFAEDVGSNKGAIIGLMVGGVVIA

Regarding `CCOC(=O)CN1C(=O)/C(=C/c2ccc(-c3cccc(I)c3)o2)SC1=S` [Compound 1, (Z)-ethyl-2-(5-((5-(3-iodophenyl)furan-2-yl)methylene)-4-oxo-2-thioxothiazolidin-3-yl)acetate], the “Ki ratios of Aβ42/Tau” value at tau protein aggregate [1] was 1.54. Further, the Ki at tau protein aggregate [1] turned out to be 489 nM; on Aβ42 aggregate, 752 nM. In addition, the “Inhibition of binding of tau protein aggregate to thioflavin S (fluorescence spectra)” value on tau protein aggregate [2] is on record as “inhibition of binding of a tau protein aggregate to thioflavin S”.
Consider `CCOC(=O)CN1C(=O)/C(=C/c2ccc(-c3cccc(I)c3)o2)NC1=S` [Compound 2, (Z)-ethyl-2-(4-((5-(3-iodophenyl)furan-2-yl)methylene)-5-oxo-2-thioxoimidazolidin-1-yl)acetate], for which, on tau protein aggregate [1], the “Ki ratios of Aβ42/Tau” value came out at 5.57 and the Ki was 155 nM. Further, the Ki at Aβ42 aggregate turned out to be 864 nM. Besides, on tau protein aggregate [2], the “Inhibition of binding of tau protein aggregate to thioflavin S (fluorescence spectra)” value was “inhibition of binding of a tau protein aggregate to thioflavin S”.

(Values after US8476449B2, “Radioactive iodine labeled organic compound or salt thereof” (Nihon Medi-Physics Co., Ltd., priority 2010, dated 2013).)
